Test results from patent US20130116287A1 (priority 2010, published 2013).
Values joined by “and” are separate entries in the source; they are usually repeats but may differ in a detail not shown here. Equal values may be shown once.

Columns and labels:
Phytophthora infestans = format: in vivo; settings: 500 ppm of active ingredient; tomato, preventive; evaluated 7 days after inoculation; 100% = no disease
[1] = Measurement of logP values by HPLC on reversed phase columns (EEC directive 79/831 Annex V.A8); format: physicochemical; settings: HPLC; for Log P [I1] main isomer / Log P [I2] minor isomer / Log P (two values printed, isomers not assigned): pH 2.7, 0.1% formic acid; for Log P (two values printed, isomers not assigned): two values without isomer tag; for Log P: pH 2.7, 0.1% formic acid in water / acetonitrile, single value

SMILES | efficacy (Phytophthora infestans) | Log P [I1] main isomer [1] | Log P [I2] minor isomer [1] | Log P (two values printed, isomers not assigned) [1] | Log P [1]
Cc1snnc1C(=NOCc1csc(NC(=O)C(F)(F)Oc2ccccc2)n1)c1ccccc1 (mixture of isomers) [Example 1] | 100% | 4.25 | 4.15 |  | 
Cc1snnc1C(=NOCc1csc(NC(=O)CSc2ccccc2)n1)c1ccccc1 (mixture of isomers) [Example 5] | 95% | 3.89 | 3.78 |  | 
Cc1snnc1C(=NOCc1cccc(NC(=O)COc2ccccc2)n1)c1ccccc1 (mixture of isomers) [Example 9] | 95% | 4.14 | 4.01 |  | 
CC(=O)OCC(=O)Nc1nc(CON=C(c2ccccc2)c2nnsc2C)cs1 (mixture of isomers) [Example 11] |  | 2.78 | 2.68 |  | 
CC(=O)OCC(=O)Nc1cccc(CON=C(c2ccccc2)c2nnsc2C)n1 (mixture of isomers) [Example 12] | 70% | 2.93 | 2.82 |  | 
Cc1snnc1C(=NOCc1cccc(NC(=O)COCc2ccccc2)n1)c1ccccc1 (mixture of isomers) [Example 29] | 93% | 4.34 |  |  | 
Cc1snnc1C(=NOCc1csc(NC(=O)COc2ccccc2Cl)n1)c1ccccc1 (mixture of isomers) [Example 31] | 95% | 4.19 | 4.06 |  | 
Cc1snnc1C(=NOCc1cccc(NC(=O)COc2ccccc2Cl)n1)c1ccccc1 (mixture of isomers) [Example 32] | 93% | 4.61 | 4.49 |  | 
Cc1snnc1C(=NOCc1csc(NC(=O)COc2ccc(Cl)cc2)n1)c1ccccc1 (mixture of isomers) [Example 33] | 100% |  |  | 4.09 | 
Cc1snnc1C(=NOCc1cccc(NC(=O)COc2ccc(Cl)cc2)n1)c1ccccc1 (mixture of isomers) [Example 35] | 95% | 4.51 |  |  | 
Cc1snnc1C(=NOCc1csc(NC(=O)COc2cccc(Cl)c2)n1)c1ccccc1 (mixture of isomers) [Example 41] | 100% |  |  | 4.24 and 4.11 | 
Cc1snnc1C(=NOCc1cccc(NC(=O)COc2cccc(Cl)c2)n1)c1ccccc1 (mixture of isomers) [Example 43] |  | 4.53 | 4.41 |  | 
COc1ccccc1OCC(=O)Nc1cccc(CON=C(c2ccccc2)c2nnsc2C)n1 (mixture of isomers) [Example 58] | 95% | 4.24 | 4.11 |  | 
CC(=O)OC(C)(C)C(=O)Nc1nc(CON=C(c2ccccc2)c2nnsc2C)cs1 (mixture of isomers) [Example 100] | 95% | 3.35 | 3.25 |  | 
CC(=O)OC(C)(C)C(=O)Nc1cccc(CON=C(c2ccccc2)c2nnsc2C)n1 (mixture of isomers) [Example 101] | 95% | 3.48 | 3.35 |  | 
Cc1snnc1C(=NOCc1cccc(NC(=O)COCCC(C)C)n1)c1ccccc1 [Example 4] | 93% |  |  |  | 
Cc1snnc1C(=NOCc1cccc(NC(=O)COc2ccccc2)n1)c1ccccc1 [Example 10] | 98% |  |  |  | 4.11
C#CCOC(C)C(=O)Nc1nc(CON=C(c2ccccc2)c2nnsc2C)cs1 (centres unmarked) [Example 13] | 100% |  |  |  | 3.29
C#CCOC(C)C(=O)Nc1cccc(CON=C(c2ccccc2)c2nnsc2C)n1 (centres unmarked) [Example 14] | 100% |  |  |  | 3.58
Cc1snnc1C(=NOCc1cccc(NC(=O)C(C)Oc2ccccc2)n1)c1ccccc1 (centres unmarked) [Example 16] | 100% |  |  |  | 4.41
Cc1snnc1C(=NOCc1csc(NC(=O)COCC2CC2)n1)c1ccccc1 [Example 17] | 97% |  |  |  | 3.53

SMILES | efficacy (Phytophthora infestans) | Log P [I1] main isomer [1] | Log P [I2] minor isomer [1] | Log P (two values printed, isomers not assigned) [1] | Log P [1]
Cc1snnc1C(=NOCc1cccc(NC(=O)COCC2CC2)n1)c1ccccc1 [Example 18] | 100% |  |  |  | 3.92
C=CCCOC(C)C(=O)Nc1nc(CON=C(c2ccccc2)c2nnsc2C)cs1 (centres unmarked) [Example 19] | 98% |  |  |  | 3.99
C=CCCOC(C)C(=O)Nc1cccc(CON=C(c2ccccc2)c2nnsc2C)n1 (centres unmarked) [Example 20] | 95% |  |  |  | 4.36
CCCCOCC(=O)Nc1nc(CON=C(c2ccccc2)c2nnsc2C)cs1 [Example 21] | 93% |  |  |  | 3.99
CCCCOCC(=O)Nc1cccc(CON=C(c2ccccc2)c2nnsc2C)n1 [Example 22] | 95% |  |  |  | 4.41
Cc1snnc1C(=NOCc1cccc(NC(=O)COC2CCCC2)n1)c1ccccc1 [Example 24] | 95% |  |  |  | 4.51
C=CCOC(C)C(=O)Nc1cccc(CON=C(c2ccccc2)c2nnsc2C)n1 (centres unmarked) [Example 26] | 95% |  |  |  | 3.94
Cc1snnc1C(=NOCc1cccc(NC(=O)COCc2ccccc2)n1)c1ccccc1 [Example 30] | 95% |  |  |  | 4.29
Cc1snnc1C(=NOCc1csc(NC(=O)COc2ccc(Cl)cc2)n1)c1ccccc1 [Example 34] | 100% |  |  |  | 4.19
Cc1snnc1C(=NOCc1cccc(NC(=O)COc2ccc(Cl)cc2)n1)c1ccccc1 [Example 36] | 100% |  |  |  | 4.49
C=CCCOCC(=O)Nc1nc(CON=C(c2ccccc2)c2nnsc2C)cs1 [Example 37] | 98% |  |  |  | 3.68
C=CCCOCC(=O)Nc1cccc(CON=C(c2ccccc2)c2nnsc2C)n1 [Example 38] | 100% |  |  |  | 3.99
Cc1snnc1C(=NOCc1cccc(NC(=O)C(C)OCC2CC2)n1)c1ccccc1 (centres unmarked) [Example 40] | 97% |  |  |  | 
Cc1snnc1C(=NOCc1csc(NC(=O)COc2cccc(Cl)c2)n1)c1ccccc1 [Example 42] | 100% |  |  |  | 4.19
Cc1snnc1C(=NOCc1csc(NC(=O)COc2ccc(I)cc2)n1)c1ccccc1 [Example 45] | 100% |  |  |  | 4.44
Cc1snnc1C(=NOCc1cccc(NC(=O)COc2ccc(I)cc2)n1)c1ccccc1 [Example 46] | 100% |  |  |  | 
C#CCOCC(=O)Nc1nc(CON=C(c2ccccc2)c2nnsc2C)cs1 [Example 47] | 95% |  |  |  | 3.04
C#CCOCC(=O)Nc1cccc(CON=C(c2ccccc2)c2nnsc2C)n1 [Example 48] | 100% |  |  |  | 3.29
Cc1snnc1C(=NOCc1csc(NC(=O)C(C)OCCC(C)C)n1)c1ccccc1 (centres unmarked) [Example 49] | 98% |  |  |  | 4.68
Cc1snnc1C(=NOCc1cccc(NC(=O)C(C)OCCC(C)C)n1)c1ccccc1 (centres unmarked) [Example 50] | 97% |  |  |  | 5.11
Cc1snnc1C(=NOCc1csc(NC(=O)CSCCc2ccccc2)n1)c1ccccc1 [Example 51] |  |  |  |  | 4.24

SMILES | efficacy (Phytophthora infestans) | Log P [I1] main isomer [1] | Log P [I2] minor isomer [1] | Log P (two values printed, isomers not assigned) [1] | Log P [1]
Cc1snnc1C(=NOCc1cccc(NC(=O)CSCCc2ccccc2)n1)c1ccccc1 [Example 52] | 97% |  |  |  | 4.53
Cc1snnc1C(=NOCc1cccc(NC(=O)COCC2CCC2)n1)c1ccccc1 [Example 54] | 97% |  |  |  | 4.54
Cc1snnc1C(=NOCc1csc(NC(=O)C(C)OC2CCCCC2)n1)c1ccccc1 (centres unmarked) [Example 55] | 98% |  |  |  | 4.76
Cc1snnc1C(=NOCc1cccc(NC(=O)C(C)OC2CCCCC2)n1)c1ccccc1 (centres unmarked) [Example 56] | 98% |  |  |  | 5.22
Cc1snnc1C(=NOCc1cccc(NC(=O)COC2CCCCC2)n1)c1ccccc1 [Example 60] | 95% |  |  |  | 4.91
CCOC(C)(C)C(=O)Nc1nc(CON=C(c2ccccc2)c2nnsc2C)cs1 [Example 61] | 100% |  |  |  | 3.94
CCOC(C)(C)C(=O)Nc1cccc(CON=C(c2ccccc2)c2nnsc2C)n1 [Example 62] | 95% |  |  |  | 4.34
Cc1snnc1C(=NOCc1cccc(NC(=O)COCC(C)C)n1)c1ccccc1 [Example 64] | 98% |  |  |  | 4.44
Cc1snnc1C(=NOCc1cccc(NC(=O)COC(C)C)n1)c1ccccc1 [Example 66] | 93% |  |  |  | 3.94
Cc1snnc1C(=NOCc1csc(NC(=O)CSCCC(C)C)n1)c1ccccc1 [Example 67] | 95% |  |  |  | 4.41
Cc1snnc1C(=NOCc1cccc(NC(=O)CSCCC(C)C)n1)c1ccccc1 [Example 68] | 95% |  |  |  | 
Cc1snnc1C(=NOCc1csc(NC(=O)COCC2CCCCC2)n1)c1ccccc1 [Example 69] | 97% |  |  |  | 4.93
Cc1snnc1C(=NOCc1cccc(NC(=O)COCC2CCCCC2)n1)c1ccccc1 [Example 70] | 89% |  |  |  | 5.45
Cc1snnc1C(=NOCc1csc(NC(=O)COCC2CCCCO2)n1)c1ccccc1 (centres unmarked) [Example 71] | 90% |  |  |  | 3.76
Cc1snnc1C(=NOCc1cccc(NC(=O)COCC2CCCCO2)n1)c1ccccc1 (centres unmarked) [Example 72] | 75% |  |  |  | 3.92
Cc1snnc1C(=NOCc1cccc(NC(=O)C(C)Oc2ccc(F)cc2)n1)c1ccccc1 (centres unmarked) [Example 96] | 97% |  |  |  | 
CCCCOC(C)C(=O)Nc1cccc(CON=C(c2ccccc2)c2nnsc2C)n1 (centres unmarked) [Example 97] | 97% |  |  |  | 
Cc1snnc1C(=NOCc1csc(NC(=O)C(C)OCC2CCC2)n1)c1ccccc1 (centres unmarked) [Example 110] |  |  |  |  | 4.49
Cc1snnc1C(=NOCc1cccc(NC(=O)C(C)OCC2CCC2)n1)c1ccccc1 (centres unmarked) [Example 111] |  |  |  |  | 4.93
